Measurements published in the Deep4Chem optical property database.

Test: solvent given as SMILES

Work on `CCOC(=O)c1ccc(/C=C/C2=[N+]3C(=C(c4ccccc4)c4ccc(/C=C/c5ccc(C(=O)OCC)o5)n4[B-]3(F)F)C=C2)o1` yielded an absorption maximum (in ClC(Cl)Cl) of 671 nm.

Molecule `COc1ccc(N(c2ccccc2)c2ccccc2)cc1` has an absorption maximum (in Cc1ccccc1) of 299 nm.

`CCN(CC)c1ccc(C2=C3C(C)=CC(C)=[N+]3[B-](F)(F)n3c(C)cc(C)c32)cc1` showed an absorption maximum (in CO) of 500 nm.

`COC(=O)c1ccc(C(=O)NC(C)(C)C)c2c1ccc1c3ccccc3c3ccccc3c12` showed an absorption maximum (in ClCCl) of 336 nm.

For `C#CCn1c2ccccc2c2cc(/C=C/C3=[N+]4C(=C(c5ccc(I)cc5)c5c(C)c(Cl)c(/C=C/c6ccc7c(c6)c6ccccc6n7CC#C)n5[B-]4(F)F)C(C)=C3Cl)ccc21`, the absorption maximum (in CC#N) was 694 nm, the absorption maximum (in CS(C)=O) was 705 nm and the absorption maximum (in ClC(Cl)Cl) was 703 nm.

In the case of `CC(=O)c1nc(-c2ccc(N(c3ccccc3)c3ccccc3)cc2)oc1C`, the absorption maximum (in CC#N) is reported as 332 nm, the absorption maximum (in CCCCCC) is reported as 324 nm and the absorption maximum (in CCO) is reported as 333 nm. It also gave an absorption maximum (in CCOC(C)=O) of 326 nm, an absorption maximum (in CCOCC) of 326 nm and an absorption maximum (in ClCCl) of 328 nm.

In the case of `Nc1ccc2c(c1)C(=O)c1ccc(N)cc1C2=O`, the absorption maximum (in CC#N) is reported as 438 nm, the absorption maximum (in CC(C)O) is reported as 484 nm and the absorption maximum (in CCO) is reported as 477 nm. For the same molecule, the absorption maximum (in CCOC(C)=O) was 433.4 nm and the absorption maximum (in CO) was 474 nm.

For `Oc1ccc2ccccc2c1-c1nc(-c2ccccc2)c2ccccn12`, the absorption maximum (in C1CCCCC1) was 361 nm, the absorption maximum (in CC#N) was 355 nm and the absorption maximum (in CO) was 343 nm. It also gave an absorption maximum (in ClCCl) of 362 nm and an absorption maximum (in O) of 355 nm.

`N#Cc1c(N2CCCCC2)cc(-c2ccc3c(c2)OCO3)c2c1-c1cccc3cccc-2c13` showed an absorption maximum (in O) of 429 nm.

With `c1ccc(N(c2ccccc2)c2ccc(-n3ccc4cc(-c5cccc6c5-c5ccccc5C6(c5ccccc5)c5ccccc5)ccc43)cc2)cc1` the absorption maximum (in ClCCl) was 322 nm.

Molecule `CCN(CC)c1ccc(C=Cc2nc3nc4ccccc4nc3s2)c(OC)c1` has an absorption maximum (in CO) of 485 nm.

Molecule `Cc1cc(=O)[nH]c(=O)[nH]1` has an absorption maximum (in CC#N) of 256 nm.

Molecule `CCN(CC)c1ccc2c(c1)oc(=O)c1cc3c(-c4ccccc4)nn(-c4ccccc4)c3nc12` has an absorption maximum (in ClCCl) of 359 nm.

For `CCN(C)c1ccc(C2=C3C(C)=CC(/C=C/c4ccc(OCC(=O)OC)cc4)=[N+]3[B-](F)(F)n3c(C)cc(C)c32)cc1`, the absorption maximum (in CO) was 567 nm.

For `N#CC1=c2cc3c4c(c2Oc2c1cc1c5c2CCCN5CCC1)CCC[N+]=4CCC3`, the absorption maximum (in CCO) was 682 nm.

Molecule `CCCCCCc1cc2c3c(c1)c(=C1c4ccccc4Sc4ccccc41)c1cc(CCCCCC)cc4c1N3c1c(cc(CCCCCC)cc1c4=C1c3ccccc3Sc3ccccc31)c2=C1c2ccccc2Sc2ccccc21` has an absorption maximum (in ClCCl) of 430 nm.

For `CC[Si](C)(C)c1cc2ccc3cccc4ccc(c1C(=O)NC(C)(C)C)c2c34`, the absorption maximum (in ClC(Cl)Cl) was 381 nm.

For `CC(C)(C)c1cc(-c2c3cc(c(-c4cc(C(C)(C)C)cc(C(C)(C)C)c4)c4ccc([nH]4)c(-c4ccc(Br)cc4)c4nc(c(-c5ccc(Br)cc5)c5ccc2[nH]5)C=C4)N=C3)cc(C(C)(C)C)c1`, the absorption maximum (in ClCCl) was 726 nm.

Work on `CCOC(=O)C1=C(N)n2c(=O)c3ccccc3c(=O)n2C1c1cccs1` (configuration not stated) yielded an absorption maximum (in CS(C)=O) of 365 nm.

In the case of `c1ccc(-c2nc(-c3ccc(-c4ccc(-c5nc(-c6ccccc6)c(-c6ccccc6)o5)cc4)cc3)oc2-c2ccccc2)cc1`, the absorption maximum (in C1COCCO1) is reported as 353 nm.

`Cc1cc(-c2nc(-c3ccccc3)nc(-c3ccccc3)n2)ccc1N1c2ccccc2C2(c3ccccc3-c3ccccc32)c2ccccc21` showed an absorption maximum (in Cc1ccccc1) of 394.19 nm.

`Cc1cc(C)c(-c2nnc(-c3ccc(-n4c5ccccc5c5ccccc54)c(C)c3)o2)c(C)c1` gave an absorption maximum (in Cc1ccccc1) of 339 nm.

Work on `CCOC(=O)C1=C(N)n2c(=O)c3ccccc3c(=O)n2C1c1ccccc1` (configuration not stated) yielded an absorption maximum (in CS(C)=O) of 364 nm.

For `CCCCC1(CCCC)c2cc(C#Cc3ccc(/C=C(\C)c4ccccc4)cc3)ccc2-c2ccc(C#Cc3ccc(/C=C(\C)c4ccccc4)cc3)cc21`, the absorption maximum (in C1CCOC1) was 365 nm.

Molecule `COCCC1=Cc2nc1ccc1[nH]c(c3nc(ccc4[nH]c2cc4CCOC)C(CCOC)=C3)c(CN(C)C)c1CCOC` has an absorption maximum (in Cc1ccccc1) of 643 nm.

With `N#CC(C#N)=Cc1cn(-c2ccccc2)nc1-c1ccc([N+](=O)[O-])cc1` the absorption maximum (in C1CCOC1) was 346 nm, the absorption maximum (in C1COCCO1) was 346 nm and the absorption maximum (in CCO) was 346 nm. The absorption maximum (in CCOC(C)=O) was 346 nm, the absorption maximum (in CN(C)C=O) was 347 nm and the absorption maximum (in CO) was 345 nm. For the same molecule, the absorption maximum (in CS(C)=O) was 343 nm, the absorption maximum (in Cc1ccccc1) was 356 nm and the absorption maximum (in ClC(Cl)Cl) was 352 nm.

Molecule `COC(=O)C(NC(=O)OC(C)(C)C)c1ccc2oc(-c3cc(OC)ccc3OC)nc2c1` (configuration not stated) has an absorption maximum (in CC1CCCCC1) of 332 nm, an absorption maximum (in CC#N) of 333 nm and an absorption maximum (in CO) of 337 nm.

In the case of `CCCC1=Cc2nc1ccc1[nH]c(cc1CCOC)c1nc(ccc3[nH]c2cc3CCC)C(CCC)=C1`, the absorption maximum (in Cc1ccccc1) is reported as 637 nm.

Work on `COc1cc(OC)c2ccc(=O)oc2c1` yielded an absorption maximum (in CC(C)O) of 324 nm, an absorption maximum (in CCO) of 324 nm and an absorption maximum (in CCOCC) of 318 nm. The absorption maximum (in CO) was 324 nm and the absorption maximum (in O) was 327 nm.

Molecule `CCN(CC)c1ccc(/C=C2\CC/C(=C\c3ccc(N(c4ccccc4)c4ccccc4)cc3)C2=C(C#N)C#N)cc1` has an absorption maximum (in CN(C)C=O) of 579 nm.

For `CC1(C)C(/C=C/C2=C(Cl)C(=C/C=C3/N(Cc4ccc(F)cc4)c4ccccc4C3(C)C)/CCC2)=[N+](Cc2ccc(F)cc2)c2ccccc21`, the absorption maximum (in CO) was 784 nm.

Molecule `N#Cc1ccc(-n2c3ccccc3c3c2c2ccccc2n3-c2ccccc2)cc1` has an absorption maximum (in Cc1ccccc1) of 359 nm.

For `CC\C=C/C=C/C=C/C=C\CCCCCCCC(=O)O`, the absorption maximum (in C1COCCO1) was 322.7 nm, the absorption maximum (in CCCCCC) was 318.9 nm and the absorption maximum (in CCCCCCCCCC) was 320.8 nm. It also gave an absorption maximum (in CCCCO) of 320.6 nm, an absorption maximum (in CCO) of 319.2 nm and an absorption maximum (in CCOCC) of 318.8 nm. It also gave an absorption maximum (in CO) of 318.6 nm, an absorption maximum (in ClC(Cl)Cl) of 324.8 nm and an absorption maximum (in c1ccccc1) of 325.3 nm.

In the case of `CCCCN1C(=O)C2=C(c3ccc(Br)cc3)NC(=O)C2=C1c1ccc(Br)cc1`, the absorption maximum (in ClCCl) is reported as 477 nm.

`CCCn1c2cccc3oc4cccc5c4[c+](c32)c2c1cccc2n5CCC` showed an absorption maximum (in CC#N) of 557 nm.

Work on `CCB1c2ccccc2Nc2ccccc21` yielded an absorption maximum (in ClCCl) of 381 nm.

Molecule `Cc1cc2ccc(-c3cccc4cccc(-c5ccc6cc(C)c(=O)oc6c5)c34)cc2oc1=O` has an absorption maximum (in C1CCCCC1) of 324 nm, an absorption maximum (in C1COCCO1) of 324 nm and an absorption maximum (in CC#N) of 326 nm. The absorption maximum (in CCO) was 328 nm, the absorption maximum (in CCOC(C)=O) was 325 nm and the absorption maximum (in CN(C)C=O) was 326 nm. For the same molecule, the absorption maximum (in CO) was 328 nm and the absorption maximum (in c1ccccc1) was 324 nm.

For `CN(C)c1ccc2c(-c3ccc(Br)cc3)c3ccc(=[N+](C)C)cc-3oc2c1`, the absorption maximum (in CCO) was 556 nm.

In the case of `CC(C)[Si](C#Cc1c2nc3ccccc3nc2c(C#C[Si](C(C)C)(C(C)C)C(C)C)c2nc3ccccc3nc12)(C(C)C)C(C)C`, the absorption maximum (in CCCCCC) is reported as 681 nm.

For `F[B-]1(F)OC(C#Cc2ccccc2)=CC(c2ccccc2)=[O+]1`, the absorption maximum (in ClCCl) was 401 nm.

With `CCn1c2ccccc2c2cc(-c3cc(-c4ccc5c(c4)c4ccccc4n5CC)nc(-c4ccc(OC)cc4)n3)ccc21` the absorption maximum (in C1CCOC1) was 365 nm, the absorption maximum (in CCOC(C)=O) was 362 nm and the absorption maximum (in CN(C)C=O) was 369 nm. The absorption maximum (in Cc1ccccc1) was 363 nm and the absorption maximum (in ClCCl) was 364 nm.

In the case of `CCCC1(CCC)c2cc(-c3ccc4c(c3)C(CCC)(CCC)c3cc(C(C)(C)CC)ccc3-4)ccc2-c2ccc(-c3ccc4c(c3)C(CCC)(CCC)c3cc(C(C)(C)CC)ccc3-4)cc21`, the absorption maximum (in C1CCCCC1) is reported as 351 nm.

With `Cc1c(C)c(N2c3ccccc3Oc3ccccc32)c(C)c(C)c1B(c1c(C)c(C)c(N2c3ccccc3Oc3ccccc32)c(C)c1C)c1c(C)c(C)c(N2c3ccccc3Oc3ccccc32)c(C)c1C` the absorption maximum (in CC(C)(C)c1ccc(-n2c3ccc([Si](c4ccccc4)(c4ccccc4)c4ccccc4)cc3c3cc([Si](c4ccccc4)(c4ccccc4)c4ccccc4)ccc32)cc1) was 398 nm.

With `Cc1c(C(=O)c2ccccc2)c2ccc3cccc4c5cccc6ccc1c(c65)c2c34` the absorption maximum (in ClCCl) was 391 nm.

`c1ccc2c(c1)oc1nc3oc4ccc(-n5c6ccccc6c6cc(-n7c8ccccc8c8ccccc87)ccc65)cc4c3cc12` showed an absorption maximum (in ClC(Cl)Cl) of 354 nm.

Molecule `CCC1=C(C)C2=C(C)c3cccn3[B-](F)(F)[N+]2=C1C` has an absorption maximum (in C1CCCCC1) of 504 nm, an absorption maximum (in CC(C)=O) of 495 nm and an absorption maximum (in CCO) of 497 nm. It also gave an absorption maximum (in CCOC(C)=O) of 496 nm, an absorption maximum (in CO) of 495.5 nm and an absorption maximum (in OCC(F)(F)F) of 492 nm.

`CC(=O)c1ccc(-c2cccc3ncc(-c4ccccc4)n23)cc1` gave an absorption maximum (in ClCCl) of 358 nm.

With `COc1ccc(-c2ncccn2)cc1` the absorption maximum (in ClCCl) was 283 nm.

Molecule `Nc1cccc2c1-c1ccccc1C2=O` has an absorption maximum (in C1CCCCC1) of 427 nm, an absorption maximum (in CC#N) of 451 nm and an absorption maximum (in CCO) of 458 nm. For the same molecule, the absorption maximum (in c1ccccc1) was 440 nm.

Molecule `Nc1ccc(/C=C/c2ccc3ccccc3c2)cc1` has an absorption maximum (in CC#N) of 348 nm and an absorption maximum (in CCCCCC) of 342 nm.

Work on `Cc1cc(=O)c2ccc(N)cc2o1` yielded an absorption maximum (in C1CCOC1) of 323 nm, an absorption maximum (in C1COCCO1) of 314 nm and an absorption maximum (in CC#N) of 315 nm. It also gave an absorption maximum (in CC(C)O) of 327 nm, an absorption maximum (in CCCCO) of 329 nm and an absorption maximum (in CCCO) of 329 nm. The absorption maximum (in CCOC(C)=O) was 315 nm, the absorption maximum (in CN(C)C=O) was 325 nm and the absorption maximum (in CO) was 327 nm. It also gave an absorption maximum (in CS(C)=O) of 326 nm, an absorption maximum (in ClC(Cl)Cl) of 311 nm and an absorption maximum (in O) of 322 nm.

`c1ccc(CO[Si]23n4c5c6ccccc6c4/N=C4N=C(/N=c6/c7ccccc7c(n62)=c2c6ccccc6c(n23)=N5)c2ccccc2\4)cc1` (configuration not stated) showed an absorption maximum (in CN(C)C=O) of 658 nm.

In the case of `N#Cc1cc(/C=C/c2ccc(/C=C/c3ccc(N(c4ccccc4)c4ccccc4)cc3)c(C#N)c2)ccc1/C=C/c1ccc(N(c2ccccc2)c2ccccc2)cc1`, the absorption maximum (in ClCCl) is reported as 429 nm.

Molecule `FC(F)(F)C(F)(F)C(F)(F)C1=NC2=C(Sc3ccccc3)C=C3c4cc(Sc5ccccc5)c5nc(C(F)(F)C(F)(F)C(F)(F)F)nc6c(Sc7ccccc7)cc(c4c56)=C4C=C(Sc5ccccc5)C(=N1)C2C34` (configuration not stated) has an absorption maximum (in C1CCOC1) of 565 nm.

In the case of `c1ccc(-c2cc(-c3ccc(N(c4ccccc4)c4ccccc4)cc3)cc(-c3ccccc3)n2)cc1`, the absorption maximum (in CC#N) is reported as 357 nm, the absorption maximum (in CCCCCC) is reported as 354 nm and the absorption maximum (in CCO) is reported as 362 nm. It also gave an absorption maximum (in CO) of 359 nm and an absorption maximum (in ClCCl) of 360 nm.
